Results published in US4552864A, “Gonadoliberin derivatives process for the preparation and pharmaceutical compositions thereof” (Reanal Finomvegyszergyar, priority 1982, dated 1985).
Like-named read-outs stand apart in the source and are kept apart here.

Test system: adenohypophysis of female Sprague-Dawley rats (cell cultures), LH-hormone released from the cells
Settings: for ED50 (LH release): rat pituitary cell culture, 4 hours incubation with 10^-7 to 10^-12 molar peptide; for relative activity (GnRH = 1.00): relative LH-releasing activity versus GnRH, from ED50 values
Method: The LH-releasing activity of the new peptides according to the invention was tested by the following method, in which for comparison the known gonadoliberin was employed under the same conditions.
The adenohypophysis of female Sprague-Dawley rats weighing 150-200 g each was eliminated and pretrypsinized. Approximately 40-50 pituitaries were placed into separate flasks and allowed to stand in 25 ml of a 0.25% trypsin solution (Sigma, type 111) at 0° to 4° C. for 16 hours. The pituitaries were then stirred under a 5% CO2 atmosphere at 37° C. for 20-25 minutes while they were decomposed to their cells. To the cell suspension soya-bean trypsin inhibitor was added whereupon it was suspended and centrifuged in a Medium 199 solution (with Earle's salts, Flow Laboratories, UK) three times (800 x g, 10 minutes). The cell suspension was padded through a sterile metal filter and the number of cells in one ml was counted. After counting, 3 ml of the cell suspension was dispensed into culture flasks each containing 1.8×10^6 cells. The cells were cultured for 3 days at 37° C. under a 5% CO2 atmosphere. On the 3rd day the medium was replaced by a fresh one and incubation was continued for one more day. On the 4th day the medium was changed again and a medium containing a 10^-7 to 10^-12 molar solution of the peptides to be tested was added to the cell cultures. The cells were incubated with the peptide solutions for 4 hours, the culture solutions were eliminated and the amount of the LH-hormone released from the cells was determined by radioimunoassay.

| Substance | ED50 (LH release) [nM] | relative activity (GnRH = 1.00) | ED50 (LH release) (unit as printed for GnRH) [nM] |
| --- | --- | --- | --- |
| Glp-His-Trp-Ser-Tyr-D-Cpa-Leu-Arg-Pro-Gly-NH2 [D-Cpa^6 -GnRH] | 0.02063 | 16.6 | – |
| Glp-His-Trp-Ser-Tyr-D-Thx-Leu-Arg-Pro-Gly-NH2 [D-Thx^6 -GnRH] | 0.02892 | 11.9 | – |
| Gonadoliberin [GnRH, reference compound] | – | 1.00 | 0.343 |
